In ChEMBL document CHEMBL4813963, “Discovery of pyrazolo-thieno[3,2-d]pyrimidinylamino-phenyl acetamides as type-II pan-tropomyosin receptor kinase (TRK) inhibitors: Design, synthesis, and biological evaluation” (Eur J Med Chem, 2021):

Assays:
[1] = biological target: T1, High affinity nerve growth factor receptor (Homo sapiens, UniProt P04629); assay: Inhibition of recombinant His-tagged human TRKA (441 to 796 residues) expressed in baculovirus expression system using 5-FAM-EEPLYWSFPAKKK-CONH2 as substrate preincubated for 1 hr followed by substrate addition in presence of ATP by mobility shift assay
Target sequence in this assay (P04629 whole entry, the tested form may be a part): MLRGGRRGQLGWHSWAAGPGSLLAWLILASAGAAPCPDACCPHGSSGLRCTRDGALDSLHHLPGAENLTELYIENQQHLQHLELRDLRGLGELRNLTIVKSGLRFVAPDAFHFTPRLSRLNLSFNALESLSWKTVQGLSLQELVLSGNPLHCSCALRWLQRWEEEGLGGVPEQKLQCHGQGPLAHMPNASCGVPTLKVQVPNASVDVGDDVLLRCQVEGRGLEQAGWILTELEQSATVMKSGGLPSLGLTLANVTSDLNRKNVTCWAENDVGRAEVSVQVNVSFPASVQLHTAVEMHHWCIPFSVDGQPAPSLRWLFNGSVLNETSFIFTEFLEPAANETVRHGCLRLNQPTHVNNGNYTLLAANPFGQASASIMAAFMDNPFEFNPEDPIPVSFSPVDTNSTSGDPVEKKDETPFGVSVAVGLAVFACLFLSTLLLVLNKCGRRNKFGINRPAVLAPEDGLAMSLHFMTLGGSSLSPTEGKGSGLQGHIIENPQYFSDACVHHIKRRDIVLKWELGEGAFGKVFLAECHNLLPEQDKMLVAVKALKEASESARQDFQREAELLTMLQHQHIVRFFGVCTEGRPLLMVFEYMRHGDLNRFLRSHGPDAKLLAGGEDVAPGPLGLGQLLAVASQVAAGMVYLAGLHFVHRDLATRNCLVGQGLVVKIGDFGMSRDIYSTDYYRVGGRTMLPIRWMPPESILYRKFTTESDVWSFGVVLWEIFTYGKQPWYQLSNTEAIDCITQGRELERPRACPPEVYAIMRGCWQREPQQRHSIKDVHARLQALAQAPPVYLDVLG

RPMI-8226 = assay: Antiproliferative activity against human RPMI-8226 cells assessed as cell growth at 10 uM relative to control; type: functional; conditions: read-out: Activity
NCI-H322M = assay: Antiproliferative activity against human NCI-H322M cells assessed as cell growth at 10 uM relative to control; type: functional; conditions: read-out: Activity
KM12 [2] = assay: Antiproliferative activity against human KM12 cells assessed as cell growth at 10 uM relative to control; type: functional; conditions: read-out: Activity
MOLT-4 = assay: Antiproliferative activity against human MOLT-4 cells assessed as cell growth at 10 uM relative to control; type: functional; conditions: read-out: Activity
CAKI-1 = assay: Antiproliferative activity against human CAKI-1 cells assessed as cell growth at 10 uM relative to control; type: functional; conditions: read-out: Activity
MDA-MB-468 = assay: Antiproliferative activity against human MDA-MB-468 cells assessed as cell growth at 10 uM relative to control; type: functional; conditions: read-out: Activity
HCT-116 = assay: Antiproliferative activity against human HCT-116 cells assessed as cell growth at 10 uM relative to control; type: functional; conditions: read-out: Activity
TK-10 = assay: Antiproliferative activity against human TK-10 cells assessed as cell growth at 10 uM relative to control; type: functional; conditions: read-out: Activity
UACC-257 = assay: Antiproliferative activity against human UACC-257 cells assessed as cell growth at 10 uM relative to control; type: functional; conditions: read-out: Activity
SK-MEL-2 = assay: Antiproliferative activity against human SK-MEL-2 cells assessed as cell growth at 10 uM relative to control; type: functional; conditions: read-out: Activity
NCI-H226 = assay: Antiproliferative activity against human NCI-H226 cells assessed as cell growth at 10 uM relative to control; type: functional; conditions: read-out: Activity
Hs-578T = assay: Antiproliferative activity against human Hs-578T cells assessed as cell growth at 10 uM relative to control; type: functional; conditions: read-out: Activity
BT-549 = assay: Antiproliferative activity against human BT-549 cells assessed as cell growth at 10 uM relative to control; type: functional; conditions: read-out: Activity
MDA-MB-435 = assay: Antiproliferative activity against human MDA-MB-435 cells assessed as cell growth at 10 uM relative to control; type: functional; conditions: read-out: Activity
SK-MEL-5 = assay: Antiproliferative activity against human SK-MEL-5 cells assessed as cell growth at 10 uM relative to control; type: functional; conditions: read-out: Activity
HCT-15 = assay: Antiproliferative activity against human HCT-15 cells assessed as cell growth at 10 uM relative to control; type: functional; conditions: read-out: Activity
OVCAR-8 = assay: Antiproliferative activity against human OVCAR-8 cells assessed as cell growth at 10 uM relative to control; type: functional; conditions: read-out: Activity
DU-145 = assay: Antiproliferative activity against human DU-145 cells assessed as cell growth at 10 uM relative to control; type: functional; conditions: read-out: Activity
K562 = assay: Antiproliferative activity against human K562 cells assessed as cell growth at 10 uM relative to control; type: functional; conditions: read-out: Activity
SN12C = assay: Antiproliferative activity against human SN12C cells assessed as cell growth at 10 uM relative to control; type: functional; conditions: read-out: Activity
OVCAR-5 = assay: Antiproliferative activity against human OVCAR-5 cells assessed as cell growth at 10 uM relative to control; type: functional; conditions: read-out: Activity
OVCAR-4 = assay: Antiproliferative activity against human OVCAR-4 cells assessed as cell growth at 10 uM relative to control; type: functional; conditions: read-out: Activity
LOX IMVI = assay: Antiproliferative activity against human LOX IMVI cells assessed as cell growth at 10 uM relative to control; type: functional; conditions: read-out: Activity
SF-268 = assay: Antiproliferative activity against human SF-268 cells assessed as cell growth at 10 uM relative to control; type: functional; conditions: read-out: Activity
ACHN = assay: Antiproliferative activity against human ACHN cells assessed as cell growth at 10 uM relative to control; type: functional; conditions: read-out: Activity
HOP-62 = assay: Antiproliferative activity against human HOP-62 cells assessed as cell growth at 10 uM relative to control; type: functional; conditions: read-out: Activity
MCF7 = assay: Antiproliferative activity against human MCF7 cells assessed as cell growth at 10 uM relative to control; type: functional; conditions: read-out: Activity
CCRF-CEM = assay: Antiproliferative activity against human CCRF-CEM cells assessed as cell growth at 10 uM relative to control; type: functional; conditions: read-out: Activity
SR = assay: Antiproliferative activity against human SR cells assessed as cell growth at 10 uM relative to control; type: functional; conditions: read-out: Activity
SNB-75 = assay: Antiproliferative activity against human SNB-75 cells assessed as cell growth at 10 uM relative to control; type: functional; conditions: read-out: Activity
RXF 393 = assay: Antiproliferative activity against human RXF 393 cells assessed as cell growth at 10 uM relative to control; type: functional; conditions: read-out: Activity
UACC-62 = assay: Antiproliferative activity against human UACC-62 cells assessed as cell growth at 10 uM relative to control; type: functional; conditions: read-out: Activity
HOP-92 = assay: Antiproliferative activity against human HOP-92 cells assessed as cell growth at 10 uM relative to control; type: functional; conditions: read-out: Activity
SW-620 = assay: Antiproliferative activity against human SW-620 cells assessed as cell growth at 10 uM relative to control; type: functional; conditions: read-out: Activity
COLO 205 = assay: Antiproliferative activity against human COLO 205 cells assessed as cell growth at 10 uM relative to control; type: functional; conditions: read-out: Activity
NCI/ADR-RES = assay: Antiproliferative activity against human NCI/ADR-RES cells assessed as cell growth at 10 uM relative to control; type: functional; conditions: read-out: Activity
EKVX = assay: Antiproliferative activity against human EKVX cells assessed as cell growth at 10 uM relative to control; type: functional; conditions: read-out: Activity
A549 = assay: Antiproliferative activity against human A549 cells assessed as cell growth at 10 uM relative to control; type: functional; conditions: read-out: Activity
HT-29 = assay: Antiproliferative activity against human HT-29 cells assessed as cell growth at 10 uM relative to control; type: functional; conditions: read-out: Activity
PC-3 = assay: Antiproliferative activity against human PC-3 cells assessed as cell growth at 10 uM relative to control; type: functional; conditions: read-out: Activity
786-0 = assay: Antiproliferative activity against human 786-0 cells assessed as cell growth at 10 uM relative to control; type: functional; conditions: read-out: Activity
NCI-H23 = assay: Antiproliferative activity against human NCI-H23 cells assessed as cell growth at 10 uM relative to control; type: functional; conditions: read-out: Activity
HL-60(TB) = assay: Antiproliferative activity against human HL-60(TB) cells assessed as cell growth at 10 uM relative to control; type: functional; conditions: read-out: Activity
SNB-19 = assay: Antiproliferative activity against human SNB-19 cells assessed as cell growth at 10 uM relative to control; type: functional; conditions: read-out: Activity
SK-MEL-28 = assay: Antiproliferative activity against human SK-MEL-28 cells assessed as cell growth at 10 uM relative to control; type: functional; conditions: read-out: Activity
OVCAR-3 = assay: Antiproliferative activity against human OVCAR-3 cells assessed as cell growth at 10 uM relative to control; type: functional; conditions: read-out: Activity
Malme-3M = assay: Antiproliferative activity against human MALME-3M cells assessed as cell growth at 10 uM relative to control; type: functional; conditions: read-out: Activity
IGROV-1 = assay: Antiproliferative activity against human IGROV-1 cells assessed as cell growth at 10 uM relative to control; type: functional; conditions: read-out: Activity
HCC 2998 = assay: Antiproliferative activity against human HCC 2998 cells assessed as cell growth at 10 uM relative to control; type: functional; conditions: read-out: Activity
SK-OV-3 = assay: Antiproliferative activity against human SK-OV-3 cells assessed as cell growth at 10 uM relative to control; type: functional; conditions: read-out: Activity
NCI-H522 = assay: Antiproliferative activity against human NCI-H522 cells assessed as cell growth at 10 uM relative to control; type: functional; conditions: read-out: Activity
SF-295 = assay: Antiproliferative activity against human SF-295 cells assessed as cell growth at 10 uM relative to control; type: functional; conditions: read-out: Activity
T47D = assay: Antiproliferative activity against human T47D cells assessed as cell growth at 10 uM relative to control; type: functional; conditions: read-out: Activity
U-251 = assay: Antiproliferative activity against human U-251 cells assessed as cell growth at 10 uM relative to control; type: functional; conditions: read-out: Activity
MDA-MB-231 = assay: Antiproliferative activity against human MDA-MB-231 cells assessed as cell growth at 10 uM relative to control; type: functional; conditions: read-out: Activity
NCI-H460 = assay: Antiproliferative activity against human NCI-H460 cells assessed as cell growth at 10 uM relative to control; type: functional; conditions: read-out: Activity
UO-31 = assay: Antiproliferative activity against human UO-31 cells assessed as cell growth at 10 uM relative to control; type: functional; conditions: read-out: Activity
SF-539 = assay: Antiproliferative activity against human SF-539 cells assessed as cell growth at 10 uM relative to control; type: functional; conditions: read-out: Activity
M14 = assay: Antiproliferative activity against human M14 cells assessed as cell growth at 10 uM relative to control; type: functional; conditions: read-out: Activity
A498 = assay: Antiproliferative activity against human A498 cells assessed as cell growth at 10 uM relative to control; type: functional; conditions: read-out: Activity
[3] = biological target: T1, High affinity nerve growth factor receptor; assay: Inhibition of recombinant His-tagged human TRKA (441 to 796 residues) expressed in baculovirus expression system at 20 uM using 5-FAM-EEPLYWSFPAKKK-CONH2 as substrate preincubated for 1 hr followed by substrate addition in presence of ATP by mobility shift assay relative to control
Target sequence in this assay (P04629 33-796 limits assumed): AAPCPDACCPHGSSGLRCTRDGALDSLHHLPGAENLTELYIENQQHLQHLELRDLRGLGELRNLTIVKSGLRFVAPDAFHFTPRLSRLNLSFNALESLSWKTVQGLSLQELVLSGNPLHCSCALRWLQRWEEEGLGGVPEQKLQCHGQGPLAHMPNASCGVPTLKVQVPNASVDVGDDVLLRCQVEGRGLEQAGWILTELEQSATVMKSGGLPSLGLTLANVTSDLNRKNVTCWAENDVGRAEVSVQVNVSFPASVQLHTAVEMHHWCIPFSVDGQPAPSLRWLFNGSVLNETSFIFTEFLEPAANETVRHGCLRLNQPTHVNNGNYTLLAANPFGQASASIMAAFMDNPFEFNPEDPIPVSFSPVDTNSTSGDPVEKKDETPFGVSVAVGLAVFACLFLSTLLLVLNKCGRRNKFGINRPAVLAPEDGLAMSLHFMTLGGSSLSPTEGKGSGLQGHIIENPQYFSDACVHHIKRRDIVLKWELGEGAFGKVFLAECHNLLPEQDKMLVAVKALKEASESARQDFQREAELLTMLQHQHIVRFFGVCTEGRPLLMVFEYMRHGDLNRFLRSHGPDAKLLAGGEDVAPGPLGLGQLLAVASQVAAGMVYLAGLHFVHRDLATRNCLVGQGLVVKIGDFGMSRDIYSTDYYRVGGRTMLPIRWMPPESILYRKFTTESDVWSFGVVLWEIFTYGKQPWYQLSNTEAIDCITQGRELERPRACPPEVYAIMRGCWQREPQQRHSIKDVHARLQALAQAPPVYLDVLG

KM12 [4] = assay: Cytotoxicity against human KM12 cells assessed as reduction in cell viability incubated for 72 hrs by resazurin based assay; type: functional; conditions: KM12, 72 h

COc1cc(-c2cc3ncnc(Nc4ccc(CC(=O)Nc5ccc(F)c(Cl)c5)cc4)c3s2)cc(OC)c1OC
IC50 [1]: > 200 µM

Cn1cc(-c2cc3ncnc(Nc4ccc(CC(=O)Nc5ccc(C(C)(C)C)cc5)cc4)c3s2)cn1
growth at 10 µM (RPMI-8226): 103%
growth at 10 µM (NCI-H322M): 99.7%
growth at 10 µM (KM12 [2]): 22.4%
growth at 10 µM (MOLT-4): 97.5%
growth at 10 µM (CAKI-1): 86%
growth at 10 µM (MDA-MB-468): 90.9%
growth at 10 µM (HCT-116): 104%
growth at 10 µM (TK-10): 98.6%
growth at 10 µM (UACC-257): 110%
growth at 10 µM (SK-MEL-2): 105%
growth at 10 µM (NCI-H226): 95.5%
growth at 10 µM (Hs-578T): 88.8%
growth at 10 µM (BT-549): 107%
growth at 10 µM (MDA-MB-435): 104%
growth at 10 µM (SK-MEL-5): 98.3%
growth at 10 µM (HCT-15): 102%
growth at 10 µM (OVCAR-8): 103%
growth at 10 µM (DU-145): 98.2%
growth at 10 µM (K562): 91.5%
growth at 10 µM (SN12C): 98.5%
growth at 10 µM (OVCAR-5): 118%
growth at 10 µM (OVCAR-4): 98.6%
growth at 10 µM (LOX IMVI): 106%
growth at 10 µM (SF-268): 101%
growth at 10 µM (ACHN): 84.3%
growth at 10 µM (HOP-62): 125%
growth at 10 µM (MCF7): 96.2%
growth at 10 µM (CCRF-CEM): 100%
growth at 10 µM (SR): 102%
growth at 10 µM (SNB-75): 75%
growth at 10 µM (RXF 393): 93.2%
growth at 10 µM (UACC-62): 101%
growth at 10 µM (HOP-92): 132%
growth at 10 µM (SW-620): 119%
growth at 10 µM (COLO 205): 120%
growth at 10 µM (NCI/ADR-RES): 108%
growth at 10 µM (EKVX): 93.2%
growth at 10 µM (A549): 98.3%
growth at 10 µM (HT-29): 102%
growth at 10 µM (PC-3): 99.1%
growth at 10 µM (786-0): 101%
growth at 10 µM (NCI-H23): 106%
growth at 10 µM (HL-60(TB)): 97.8%
growth at 10 µM (SNB-19): 101%
growth at 10 µM (SK-MEL-28): 107%
growth at 10 µM (OVCAR-3): 110%
growth at 10 µM (Malme-3M): 102%
growth at 10 µM (IGROV-1): 98.2%
growth at 10 µM (HCC 2998): 136%
growth at 10 µM (SK-OV-3): 120%
growth at 10 µM (NCI-H522): 93%
growth at 10 µM (SF-295): 117%
growth at 10 µM (T47D): 93.7%
growth at 10 µM (U-251): 88.3%
growth at 10 µM (MDA-MB-231): 105%
growth at 10 µM (NCI-H460): 99%
growth at 10 µM (UO-31): 102%
growth at 10 µM (SF-539): 66.9%
growth at 10 µM (M14): 102%
growth at 10 µM (A498): 88.1%

O=C(Cc1ccc(-c2ncnc3ccsc23)cc1)N[C@@H]1CCCC[C@H]1O
inhibition [3]: 18%
IC50 (KM12 [4]): > 200 µM

O=C(Cc1ccc(Nc2ncnc3ccsc23)cc1)N[C@H]1CCCC[C@@H]1O
IC50 [1]: 40.5 µM
IC50 (KM12 [4]): > 200 µM
